Earlier results in patent US20250345309A1, “IMMUNE HEALTH IMPROVERS” (Amazentis SA, priority 2024, published 2025).

Settings: over 4 months, middle-aged adults (Singh et al. 2022); cited from earlier work

## O=c1oc2cc(O)ccc2c2ccc(O)cc12 [Urolithin A (UA)]
  Safety and tolerability of long-term oral administration: safe and well tolerated
